In ChEMBL document CHEMBL1857833, “Screening and optimization of specific chemical series against human African Trypanosomiasis (HAT)” one finds IC50 data, which are given here for 38 compounds.

In brackets after ≈: the same amount, converted by molar mass. Several values for one entry are separate records, joined by “and”; a condition that tells them apart may be missing. Identical values can stand only once.

The test system of one data set is Trypanosoma brucei. Kind of data set: DNDI: Inhibition of Human African Trypanosomiasis, SBRI 427, in vitro. Format: functional, organism-based.
Data set [1] is described as follows: DNDI: Cytotoxicity against L929 mouse fibroblasts, 72 hour. Format: toxicity, cell-based. The note with it: mouse, L929 mouse fibroblasts.
The nature of data set [2]: DNDI: Cytotoxicity against L929 mouse fibroblasts, CYTO-SP, 24 hour. It counts as toxicity, cell-based. To be noted: mouse, L929 mouse fibroblasts.
[3] abbreviates: Trypanosoma brucei, SBRI 427, read-out: IC50.

On to `CN(C)CCCNc1cc(-c2ccccc2)nc2cc(-c3cccc(F)c3)nn12`, for which, in the data set with Trypanosoma brucei (setting [3]), the IC50 is 1.13 µg/mL (≈ 2.9 µM). Also, the half-maximal inhibitory concentration (IC50) at 72 h in data set [1] is 2.28 µg/mL (≈ 5.85 µM).

As to `Cc1cc2[nH]c(-c3ccccc3)cc(=O)n2n1`, the IC50 with Trypanosoma brucei (setting [3]) was over 5 µg/mL. In addition, the IC50 at 72 h in data set [1] was over 10 µg/mL.

For the compound `N#Cc1cccnc1Oc1ccccc1`, the concentration for half-maximal inhibition (IC50) in the data set with Trypanosoma brucei (setting [3]) is over 5 µg/mL. Besides, the IC50 at 24 h in data set [2] was over 50 µg/mL. Regarding `CC(C)(C)OC(=O)N1CCC(Nc2cc(-c3ccccc3)nc3cc(-c4ccc(F)cc4)nn23)CC1`, in the data set with Trypanosoma brucei (setting [3]), the IC50 is over 5 µg/mL. This compound registered an IC50 at 72 h in data set [1] of over 10 µg/mL. `N#Cc1cccnc1Oc1ccccc1Br`: in the data set with Trypanosoma brucei (setting [3]), the IC50 is over 5 µg/mL. The same compound registered an IC50 at 24 h in data set [2] of over 50 µg/mL.

The compound `COc1cc(C)ccc1Oc1nc(C)ccc1/C(=N/O)NCC1CC1` came in with an IC50 at 24 h in data set [2] of over 50 µg/mL. `CCN(CC)CCCNc1cc(C)nc2cc(-c3cccc(F)c3)nn12`: the IC50 with Trypanosoma brucei (setting [3]) was over 5 µg/mL. Also, in data set [1], the IC50 at 72 h was over 10 µg/mL. In the same order, the values of `Fc1ccc(Oc2nc(Cl)nc3ccsc23)cc1` are over 5 µg/mL and over 10 µg/mL.

Turning to `Cc1ccc(-c2nc(CNC[C@@H]3CC[C@H]4C[C@@H]3C4(C)C)co2)cc1`, the IC50 in the data set on Trypanosoma brucei is 0.93 µg/mL and 2.49 µg/mL. Inhibition in data set [2] was half-maximal at 28.4 µg/mL (≈ 87.5 µM) (IC50 at 24 h). With `Cc1ccc(/C(=N/O)NCC(C)(C)C)c(Oc2ccc3ccccc3c2)n1`, half-maximal inhibition in data set [2] (IC50 at 24 h) was put at 34 µg/mL (≈ 93.5 µM).

Compound `CC1CCC(N/C(=N\O)c2cccnc2Oc2ccc(F)cc2Cl)CC1` (stereo not drawn) came in with a concentration for half-maximal inhibition (IC50) at 24 h in data set [2] of 28 µg/mL (≈ 74.1 µM).

As for `O/N=C(\NC1CCCC1)c1ccc(Oc2cc(Cl)ccc2Cl)nc1`, in the data set with Trypanosoma brucei (setting [3]), the IC50 is 1.08 µg/mL (≈ 2.95 µM). In data set [2], this compound gave an IC50 at 24 h of 28.8 µg/mL (≈ 78.6 µM).

For `CSc1ccccc1Oc1ncccc1C#N`, the IC50 in the data set with Trypanosoma brucei (setting [3]) is over 5 µg/mL. In addition, the IC50 at 24 h in data set [2] is over 50 µg/mL. As for `CC(C)(C)OC(=O)N1CCN(c2cc(-c3ccccc3)nc3cc(-c4ccc(F)cc4)nn23)CC1`, in the data set on Trypanosoma brucei (setting [3]), the IC50 was over 5 µg/mL. This compound yielded an IC50 at 72 h in data set [1] of over 10 µg/mL. As for `CCC(CC)N/C(=N\O)c1ccc(C)nc1Oc1ccc(C)cc1OC`, in data set [2], the IC50 at 24 h is over 50 µg/mL. For the compound `CCO/N=C/c1ccccc1-c1ccccc1`, the IC50 in the data set on Trypanosoma brucei (setting [3]) is over 5 µg/mL. The compound also displayed an IC50 at 24 h in data set [2] of over 50 µg/mL. On to `COc1ccc(/C=N/Oc2ccccc2)cc1`, for which, in the data set with Trypanosoma brucei (setting [3]), the half-maximal inhibitory concentration (IC50) was over 5 µg/mL. Further, the IC50 at 24 h in data set [2] is over 50 µg/mL. Turning to `Fc1cccc(-c2cc3nc(-c4ccccc4)cc(NCCCn4ccnc4)n3n2)c1`, the half-maximal inhibitory concentration (IC50) with Trypanosoma brucei (setting [3]) amounted to 4.3 µg/mL (≈ 10.4 µM). This compound came in with an IC50 at 72 h in data set [1] of 5.91 µg/mL (≈ 14.3 µM). In the same order, the values of `Cc1cc(NCCN2CCCC2)n2nc(-c3cccc(F)c3)cc2n1` are over 5 µg/mL and over 10 µg/mL. As to `C(=N\OCc1ccccc1)/c1ccccc1-c1ccccc1`, in the data set on Trypanosoma brucei (setting [3]), the IC50 is over 5 µg/mL. In data set [2], the IC50 at 24 h was over 50 µg/mL.

With `COc1ccccc1Oc1ncccc1/C(=N/O)NC1CCCC1`, in data set [2], the half-maximal inhibitory concentration (IC50) at 24 h was over 50 µg/mL. For the compound `Cc1cc(NCC(C)(C)CN(C)C)n2nc(-c3cccc(F)c3)cc2n1`, the IC50 in the data set on Trypanosoma brucei (setting [3]) was over 5 µg/mL. In data set [1], this compound returned a half-inhibitory concentration (IC50) at 72 h of 9.64 µg/mL (≈ 27.1 µM).

As for `CCOc1ccccc1CN/C(=N\O)c1cccnc1Oc1ccccc1SC`, the half-inhibitory concentration (IC50) at 24 h in data set [2] was over 50 µg/mL.

Consider `CO/N=C/c1ccc(OC)cc1`, for which, in the data set with Trypanosoma brucei (setting [3]), the IC50 is over 5 µg/mL. In data set [2], this compound returned an IC50 at 24 h of over 50 µg/mL.

For the compound `Cc1cc(NCCN2CCOCC2)n2nc(-c3cccc(F)c3)cc2n1`, the IC50 in the data set with Trypanosoma brucei (setting [3]) is over 5 µg/mL. For the same compound, the IC50 at 72 h in data set [1] was over 10 µg/mL.

As to `O=C1CCCN1CCCNc1cc(-c2ccccc2)nc2cc(-c3cccc(F)c3)nn12`, the 50% inhibitory concentration (IC50) in the data set on Trypanosoma brucei (setting [3]) was over 5 µg/mL. This compound registered an IC50 at 72 h in data set [1] of over 10 µg/mL. The corresponding values for `Cc1cc(NCCCN(C)C)n2nc(-c3cccc(F)c3)cc2n1` are over 5 µg/mL and over 10 µg/mL. As to `C[N+]1(C)CCN(c2cc(-c3ccccc3)nc3cc(-c4ccc(F)cc4)nn23)CC1`, the IC50 in the data set with Trypanosoma brucei (setting [3]) was over 5 µg/mL. This compound also returned an IC50 at 72 h in data set [1] of over 10 µg/mL.

Take `N#Cc1cccnc1Oc1ccc2ccccc2c1`: the IC50 with Trypanosoma brucei (setting [3]) is over 5 µg/mL. The IC50 at 24 h in data set [2] was over 50 µg/mL. For `Cc1cc(NCCCN2CCCC2)n2nc(-c3cccc(F)c3)cc2n1`, in the data set with Trypanosoma brucei (setting [3]), the IC50 was over 5 µg/mL. Further, in data set [1], the IC50 at 72 h was over 10 µg/mL.

On to `C=CCO/N=C/c1ccc(OC)cc1`, for which, in the data set on Trypanosoma brucei (setting [3]), the IC50 is over 5 µg/mL. Also, the IC50 at 24 h in data set [2] is over 50 µg/mL. With `CC(C)(C)COc1ncccc1/C(=N/O)N1CCCc2ccccc21`, inhibition in data set [2] was half-maximal at 26 µg/mL (≈ 76.6 µM) (IC50 at 24 h).

Regarding `Clc1ccc(-c2nc(CNCCCN3CCCC3)co2)c(Cl)c1`, the IC50 in the data set on Trypanosoma brucei is 0.62 µg/mL and 1.33 µg/mL. Moreover, the IC50 at 24 h in data set [2] was 33.6 µg/mL (≈ 94.8 µM).

Consider `Cc1cc(NCCN2CCCCC2)n2nc(-c3cccc(F)c3)cc2n1`, for which the IC50 in the data set on Trypanosoma brucei (setting [3]) is over 5 µg/mL. The IC50 at 72 h in data set [1] was over 10 µg/mL. For `Cc1ccc(/C(=N/O)NCC(C)(C)C)c(Oc2cc(Cl)ccc2Cl)n1`, in data set [2], the midpoint of inhibition, the IC50 at 24 h, lay at 27 µg/mL (≈ 70.6 µM). As for `CCc1ccccc1Oc1ncccc1C#N`, the IC50 with Trypanosoma brucei (setting [3]) is over 5 µg/mL. The compound also came in with an IC50 at 24 h in data set [2] of over 50 µg/mL. In the same order, the values of `N#Cc1cccnc1Oc1cccc2ccccc12` are over 5 µg/mL and over 50 µg/mL. `Brc1nn2ccnc2s1`: in the data set on Trypanosoma brucei (setting [3]), the IC50 is over 5 µg/mL. Further, in data set [1], the IC50 at 72 h is over 10 µg/mL.
